Key:
RhsP2tox [1] = biological target: T1, RhsP2tox (Pseudomonas aeruginosa, UniProt A0A0H2Z8A2); assay type: binding
T1 construct: gene PA14_43100; N-terminal His tag

RhsP2tox [2] = biological target: T2, RhsP2tox (Pseudomonas aeruginosa, UniProt A0A0H2Z8A2, E1576Q); experiment: biochemical
T2 construct: gene PA14_43100

Structure (SMILES): NC(=O)c1ccc[n+]([C@@H]2O[C@H](COP(=O)(O)OP(=O)(O)OC[C@H]3O[C@@H](n4cnc5c(N)ncnc54)[C@H](O)[C@@H]3O)[C@@H](O)[C@H]2O)c1 [NAD^+]
- Kd (RhsP2tox [1]): 172 ± 25 µM
- Kd (RhsP2tox [2]): 130 ± 38 µM
